Source: US12103914B2, “Compositions of biologically active menaquinol derivatives and methods of treatment” (Epizon Pharma, Inc., priority 2020, dated 2024)

Test system: vascular calcification and tissue calcification in patient with moderate calciphylaxis
Test: Treatment of patients diagnosed with moderate calciphylaxis (case examples)
Format: in vivo, human
Procedure: This example describes the administration of the disclosed compounds to subjects diagnosed with calciphylaxis. Typical symptoms include presentation of characteristic painful skin lesions (Nigwekar et al. (2015) Calciphylaxis: Risk Factors, Diagnosis, and Treatment. Am. J. Kidney Dis. 66:133-46). Definitive diagnosis of calciphylaxis is achieved via skin biopsy. Further conditions need to be considered for correct diagnosis.
The dosage form is a 5 mg, 10 mg, 25 mg, 50 mg or 100 mg soft-gel capsule. Two 50 mg capsules are administered once daily to the 100 mg dosage cohort. […]

Substance	reduction in tissue calcification (45 kg patient, 20 mg, 10 weeks) [%]	reduction in vascular calcification (suggested by change in examined biomarker levels) (45 kg patient, 20 mg, 10 weeks) [%]	reduction in tissue calcification (65 kg patient, 100 mg, 8 weeks) [%]	reduction in vascular calcification (suggested by change in examined biomarker levels) (65 kg patient, 100 mg, 8 weeks) [%]	reduction in tissue calcification (70 kg patient, 50 mg, 3 months) [%]	reduction in vascular calcification (suggested by change in examined biomarker levels) (70 kg patient, 50 mg, 3 months) [%]
Calcium salt of Menaquinol-7	15	~20	10	~10	–	–
Potassium salt of Menaquinol-7	–	–	–	–	20	~25
